Earlier results, collected in patent publication US20050038042A1, “Modified release composition comprising a short-acting hypnotic for treatment of sleep disorders” (priority 2002, published 2005).

How the values were obtained:
[1] = compared with marketed benzodiazepines
[2] = in humans

CCN(C(C)=O)c1cccc(-c2ccnc3c(C#N)cnn23)c1 [Zaleplon, N-[3-(3-cyanopyrazolo[1,5-a]pyrimidin-7-yl)phenyl]-N-ethylacetamide]
effect on sleep onset (clinical trials): effective in shortening sleep onset | safety profile (clinical trials, versus previously available benzodiazepine or nonbenzodiazepine hypnotics): more favorable safety profile | period over which decreased time to sleep onset was shown (controlled clinical studies): up to 28 days | mean duration of effect (human, in vivo): 4 to 5 h | total sleep time / number of awakenings (patients with sleep disorders): not been shown to consistently increase total sleep time or decrease the number of awakenings | effects in animal models [1]: sedative, anxiolytic, myorelaxant, and anticonvulsive effects similar to those of marketed benzodiazepines | time to maximum plasma concentration (tmax) [2]: 48 min
